Where a name gives a salt, the structure may show the parent alone. Where a SMILES comes first, the peptide text is derived from it. The star is where a group is joined. Cbz = O=C(OCc1ccccc1)*
What was measured:
eDHFR-YFP [1] = experiment: Inhibitor test in HEK293T eDHFR-YFP+ cells, Western blot; type: cell-based, Escherichia coli; details: inhibitor pre-incubated 1 h, then 100 nM 7c for 12 h
Method: Cells were then isolated as previously described and prepared for Western blot analysis. For readout by flow cytometry, 3×10^5 HEK293T^eDHFR-YFP+ cells were seeded in a clear (Falcon) 12-well plate (5×10^5 cells/well) in complete media and the cells were treated as described above the following day. Cells were washed, trypsinized, and collected following total of 13 h of incubation, and their YFP expression was analyzed on flow cytometer (BD).

eDHFR-YFP [2] = experiment: Time and dose-dependent degradation of YFP in Jurkat-DYL / Jurkat eDHFR-YFP+ cells, flow cytometry; type: cell-based, Escherichia coli; details: Jurkat-DYL; 4, 8 and 18 h incubation, varying doses
Method: Likewise, Jurkat eDHFR-YFP (Jurkat^eDHFR-YFP+) cells are seeded in clear (Falcon) 12-well plates (3×10^5 cells/well) in complete media. […]

[3] = tested on: DHFR-YFP (DY) direct fusion protein; experiment: Degradation mechanism in Jurkat-DYL cells pre-treated with epoxomicin or hydroxychloroquine sulfate, flow cytometry; type: cell-based, Escherichia coli; details: Jurkat-DYL pre-treated with DMSO, epoxomicin or hydroxychloroquine sulfate 2 h, then compound 4 h
Method: In FIG. 2, flow cytometric analysis is used to measure Jurkat-DYL cells expressing DHFR-YFP (DY) direct fusion protein pre-treated with DMSO, epoxomicin (EPOX), or hydroxychloroquine sulfate (HCS) for 2 hours before DMSO or compound 7b treatment for 4 hours.

eDHFR-YFP [4] = experiment: Degradation of eDHFR-YFP in HEK293T eDHFR-YFP+ cells, Western blot with anti-YFP antibody; type: cell-based, Escherichia coli; details: 24 h
Method: HEK293T eDHFR-YFP (HEK293T^eDHFR-YFP+) and OVCAR8 eDHFR-luc (OVCAR8^eDHFR-luc+) cells are prepared in clear (Falcon) 6-well plates (5×10^5 cells/well) and cultured in complete media. Compound 7c is solubilized in 100% DMSO to 10 mM. 10 mM 7c is serially diluted in sterile water accordingly and each dose administered to cells in fresh media at equal volume, such that the final concentration of DMSO in cell media is <1%. Once incubation with drug is completed, media is removed by vacuum, cells are washed with phosphate-buffered saline (PBS), trypsonized at 37° C., quenched with media, and centrifuged (Thermo Scientific Sorvall Legend X1R) at 1000 RPM for 5 minutes. Media and cell debris are removed by vacuum.
Once cells are isolated by centrifugation (Thermo Scientific Sorvall Legend X1R), they are solubilized in radioimmunoprecipitation assay (RIPA) lysis buffer with protease inhibitor. Cell lysate is incubated on ice for 30 minutes, sonicated, then centrifuged (Thermo Scientific Sorvall Legend Micro 21R) at 14,800 RPM for 10 minutes. Supernatant is removed and transferred to a new Eppendorf tube.
Using Thermo Scientific bicinchoninic acid (BCA) assay kit, total cell protein is quantified and compared to bovine serum albumin (BSA) standards ranging from 10 to 0.625 mg/mL. Cell lysate is aliquoted into a 96-well clear plate (Falcon) and mixed with reagent and shaken at 37° C. for 30 minutes. Samples are analyzed by plate reader (ThermoFisher Varioskan Plusplate), where absorbance is measured at […]. A calibration curve is developed, and samples are prepared to equal mass (mg) of total protein for gel electrophoresis.
Cell lysate is prepared by mixing with 4 uL of loading dye and PBS to give equal total protein and equal total volume across all samples. Each sample is loaded into a NuPage gel (4-12% Bis-tris) and developed in NuPage MES Running Buffer. Once complete, the gel is removed and prepared for protein transfer to membrane. […]

[5] = tested on: FAP CAR-eDHFR direct fusion (DF); experiment: Dose response of surface CAR expression in primary human FAP-eDHFR DF CAR T cells, flow cytometry; type: cell-based; details: different doses, 24 hours
Method: Generated CAR T cells were pelleted, resuspended in 2% BSA in PBS (Invitrogen), and incubated with Alexa Fluor® 647 AffiniPure F(ab′2) fragment goat anti-mouse IgG (Jackson ImmunoResearch Laboratories) for 30 minutes at room temperature. Stained cells were washed 3 times with PBS, and were analyzed on a flow cytometer (LSR II, BD Biosciences) for CAR and/or BFP expression. All flow data were analyzed using FlowJo software (FlowJo).
Following incubation, the cells were washed and stained with Alexa Fluor® 647 AffiniPure F(ab′2) fragment goat anti-mouse IgG (Jackson ImmunoResearch Laboratories) as described under “Flow Cytometry”, and their surface expression was analyzed on a flow cytometer (LSR II, BD Biosciences).
Data plotted as raw CAR stain fluorescence is shown in the left panel and percent of maximum CAR expression is shown in the right panel.
Values are reported as percent of maximum CAR expression (i.e. relative to CAR T cells that were treated with vehicle control). Each color represents a different donor (n=3).

[6] = tested on: FAP CAR-eDHFR direct fusion (DF); experiment: Inhibitor test in primary human FAP-eDHFR DF CAR T cells, flow cytometry; type: cell-based; details: inhibitor pre-incubated 1 hour, then 100 nM 7c for 4 hours
Method: Following pre-incubation, either 100 nM 7c or vehicle control DMSO (Sigma) was added to the wells, and cells were incubated with the drug for another 4 hours. Following incubation, the cells were washed and their surface CAR expression was assessed on a flow cytometer (BD Biosciences).
Following pre-incubation, the cells were incubated with 100 nM 7c for 4 hours and their CAR expression was assessed on a flow cytometer.

FAP-eDHFR DF CAR T cells [7] = details: 1 hour at 37° C., with or without 5 μM unlabeled TMP
Method: 3×10^6 CAR T cells were incubated with 6×10^6 counts per minute (cpm) of [^18F]FPTMP for 60 minutes in the presence or absence of unlabeled 5 μM TMP. Following incubation, cells were centrifuged at 1200 rpm and washed 3 times with cold PBS (Corning). After the third wash, the cell pellet was resuspended in 900 μL of PBS and split into 3 technical replicates of 300 μL. Radiotracer uptake was quantified on a gamma counter (PerkinElmer) and analyzed by dividing counts by the injected dose (ID) of [^18F]FPTMP. The final uptake was reported as a ratio between % ID normalized per 10^6 cells (% ID/10^6 cells) of the [^18F]FPTMP group and the blocked control (i.e. cells that were incubated with both unlabeled TMP and [^18F]FPTMP).

FAP-eDHFR DF CAR T cells [8] = details: 10:1 E:T ratio overnight, I45 huFAP target cells

Cn1cnc(N)c2ncnc1-2 [3-Methyladenine]
effect of inhibitor on eDHFR-YFP degradation induced by 7c (eDHFR-YFP [1]): does not

COc1cc(Cc2cnc(N)nc2N)cc(OC)c1OCC(=O)NCCOCCOCCNc1cccc2c1C(=O)N(C1CCC(=O)NC1=O)C2=O (centres unmarked) [Compound 7a, 2-(4-((2,4-diaminopyrimidin-5-yl)methyl)-2,6-dimethoxyphenoxy)-N-(2-(2-(2-((2-(2,6-dioxopiperidin-3-yl)-1,3-dioxoisoindolin-4-yl)amino)ethoxy)ethoxy)ethyl)acetamide]
degradation of YFP (eDHFR fusion protein) (eDHFR-YFP [2]): degrade eDHFR fusion proteins to low/no functional expression

COc1cc(Cc2cnc(N)nc2N)cc(OC)c1OCCCC(=O)NCCOCCNc1cccc2c1C(=O)N(C1CCC(=O)NC1=O)C2=O (centres unmarked) [Compound 7b, 4-(4-((2,4-diaminopyrimidin-5-yl)methyl)-2,6-dimethoxyphenoxy)-N-(2-(2-((2-(2,6-dioxopiperidin-3-yl)-1,3-dioxoisoindolin-4-yl)amino)ethoxy)ethyl)butanamide]
mechanism of degradation of eDHFR-POI [3]: primarily via a proteosome-mediated mechanism of degradation | degradation of YFP (eDHFR fusion protein) (eDHFR-YFP [2]): degrade eDHFR fusion proteins to low/no functional expression

COc1cc(Cc2cnc(N)nc2N)cc(OC)c1OCCCC(=O)NCCOCCOCCOCCOCCOCCOCCNc1cccc2c1C(=O)N(C1CCC(=O)NC1=O)C2=O (centres unmarked) [Compound 7e, 4-(4-((2,4-diaminopyrimidin-5-yl)methyl)-2,6-dimethoxyphenoxy)-N-(20-((2-(2,6-dioxopiperidin-3-yl)-1,3-dioxoisoindolin-4-yl)amino)-3,6,9,12,15,18-hexaoxaicosyl)butanamide]
degradation of eDHFR-YFP in dose response screen (eDHFR-YFP [4]): no degradation | degradation of YFP (eDHFR fusion protein) (eDHFR-YFP [2]): degrade eDHFR fusion proteins to low/no functional expression

COc1cc(Cc2cnc(N)nc2N)cc(OC)c1OCCCC(=O)NCCOCCOCCNc1cccc2c1C(=O)N(C1CCC(=O)N(C)C1=O)C2=O (centres unmarked) [Compound 7f, 4-(4-((2,4-diaminopyrimidin-5-yl)methyl)-2,6-dimethoxyphenoxy)-N-(2-(2-(2-((2-(1-methyl-2,6-dioxopiperidin-3-yl)-1,3-dioxoisoindolin-4-yl)amino)ethoxy)ethoxy)ethyl)butanamide]
eDHFR-YFP degradation at 100 nM (eDHFR-YFP [4]; 100 nM): does not induce eDHFR-YFP degradation | downregulation of surface CAR expression in dose response assay [5]: does not result in downregulation of CAR expression from their surface

CC[C@H](C)[C@H](NC(=O)[C@H]([C@@H](C)CC)N(C)C(C)=O)C(=O)N[C@H](C(=O)N[C@@H](CC(C)C)C(=O)[C@@]1(C)CO1)[C@@H](C)O [Epoxomicin]
effect of inhibitor on eDHFR-YFP degradation induced by 7c (eDHFR-YFP [1]): blocks degradation induced by 7c | effect of inhibitor on TMP-POM 7c-mediated degradation of CAR [6]: blocked TMP-POM 7c-mediated degradation of CAR

CCN(CCO)CCCC(C)Nc1ccnc2cc(Cl)ccc12 (centres unmarked) [Hydroxychloroquine HCl]
effect of inhibitor on eDHFR-YFP degradation induced by 7c (eDHFR-YFP [1]): does not

CC(C)C[C@@H](C=O)NC(=O)[C@H](CC(C)C)NC(=O)[C@H](CC(C)C)NC(=O)OCc1ccccc1 [MG132] (Cbz-Leu-Leu-Leu-aldehyde)
effect of inhibitor on TMP-POM 7c-mediated degradation of CAR [6]: blocked TMP-POM 7c-mediated degradation of CAR

NS(=O)(=O)OC[C@@H]1C[C@@H](n2ccc3c(N[C@H]4CCc5ccccc54)ncnc32)C[C@@H]1O [MLN4924]
effect of inhibitor on eDHFR-YFP degradation induced by 7c (eDHFR-YFP [1]): blocks degradation induced by 7c | effect of inhibitor on TMP-POM 7c-mediated degradation of CAR [6]: blocked TMP-POM 7c-mediated degradation of CAR

COc1cc(Cc2cnc(N)nc2N)cc(OC)c1OCCC[18F] [[18F]FPTMP, [^18F]Fluoropropyl-Trimethoprim]
in vitro uptake of radiolabeled TMP (FAP-eDHFR DF CAR T cells [7]): preserved in vitro uptake | effect of radiotracer exposure on CAR T cell cytotoxic function (FAP-eDHFR DF CAR T cells [8]): does not affect the effectors' ability to signal and kill target cells

CO/C1=C\C(C)=C\[C@@H](C)[C@@H](O)[C@@H](C)C/C(C)=C/C=C/[C@H](OC)[C@@H]([C@@H](C)[C@@H](O)[C@H](C)[C@@]2(O)C[C@@H](O)[C@H](C)[C@@H](C(C)C)O2)OC1=O [bafilomycin]
effect of inhibitor on TMP-POM 7c-mediated degradation of CAR [6]: had no impact on TMP-POM 7c function
